Measurements published in ChEMBL document CHEMBL1127631, “Three-dimensional structure-activity analysis of a series of porphyrin derivatives with anti-HIV-1 activity targeted to the V3 loop of the gp120 envelope glycoprotein of the human immunodeficiency virus type 1” (J Med Chem, 1994).
pEC50: −log10 of the molar value.

Test system: Human immunodeficiency virus 1
Test: Inhibition of HIV-1 P24 production.
Assay type: functional, organism-based
Settings: for EC50: read-out: Log 1/EC50 (converted)

| pEC50 (Human immunodeficiency virus 1) | EC50 | pEC50 | Compound |
| --- | --- | --- | --- |
| 4.17 | 67.6 µM |  | C=Cc1c(C)c2cc3[nH]c(cc4nc(cc5nc(cc1[nH]2)C(C)=C5CCC(=O)OC)C(CCC(=O)OC)=C4C)c(C)c3C=C |
| 6.12 | 1.32 µM |  | O=C(O)c1ccc(/C2=C3\C=CC(=N3)/C(c3ccc(Cl)cc3)=C3/C=CC(=N3)/C(c3ccc(C(=O)O)cc3)=c3/cc/c([nH]3)=C(\c3ccc(C(=O)O)cc3)C3C=CC2N3)cc1 (stereo unspecified) |
| 5.97 | 1.07 µM |  | NC(=O)c1ccc(/C2=C3\C=CC(=N3)/C(c3ccc(C(N)=O)cc3)=c3/cc/c([nH]3)=C(\c3ccc(C(N)=O)cc3)C3C=CC(N3)/C(c3ccc(C(N)=O)cc3)=C3/C=CC2=N3)cc1 (stereo unspecified) |
| 5.25 | 5.62 µM |  | C=CC1=C(C)c2cc3nc(cc4[nH]c(cc5[nH]c(cc1n2)c(C)c5CO)c(C)c4CCC(=O)O)C(CCC(=O)O)=C3C |
| 5.21 | 6.17 µM |  | C=Cc1c(C)c2cc3[nH]c(cc4nc(cc5nc(cc1[nH]2)C(C)=C5CCC(=O)O)C(CCC(=O)O)=C4C)c(C)c3C(C)O (stereo unspecified) |
| 4.68 | 20.9 µM |  | CC1=C(CCC(=O)O)c2cc3[nH]c(cc4[nH]c(cc5nc(cc1n2)C(CCC(=O)O)=C5CC(=O)O)c(CCC(=O)O)c4C)c(CCC(=O)O)c3CC(=O)O |
| 6.21 |  |  | O=C(O)c1ccc(/C2=C3\C=CC(=N3)/C(c3ccccc3)=c3/cc/c([nH]3)=C(\c3ccc(C(=O)O)cc3)C3C=CC(N3)/C(c3ccc(C(=O)O)cc3)=C3/C=CC2=N3)cc1 (stereo unspecified) |
| 6.11 | 1.29 µM |  | CN1C2C=CC1/C(c1ccc(C(=O)O)cc1)=c1/cc/c([nH]1)=C(\c1ccc(C(=O)O)cc1)C1=N/C(=C(/c3ccc(C(=O)O)cc3)C3=N/C(=C\2c2ccc(C(=O)O)cc2)C=C3)C=C1 (stereo unspecified) |
| 5.99 | 1.02 µM |  | C=CC1=C(C)c2cc3nc(cc4[nH]c(cc5c(C=C)c(C)c(cc1n2)n5C)c(C)c4CCC(=O)O)C(CCC(=O)O)=C3C |
| 5.52 | 3.02 µM |  | O=C(O)CCC1=C(CC(=O)O)c2cc3nc(cc4[nH]c(cc5[nH]c(cc1n2)c(CCC(=O)O)c5CC(=O)O)c(CC(=O)O)c4CCC(=O)O)C(CC(=O)O)=C3CCC(=O)O |
|  |  | 4.45 | HEMIN |

The next lines start with the compound.

| Compound | pEC50 (Human immunodeficiency virus 1) | EC50 | pEC50 |
| --- | --- | --- | --- |
| CC1=C(C(O)CO)c2cc3nc(cc4[nH]c(cc5[nH]c(cc1n2)c(C)c5CCC(=O)O)c(CCC(=O)O)c4C)C(C(O)CO)=C3C (stereo unspecified) | 4.26 | 55 µM |  |
| Cc1ccc(/C2=C3\C=CC(=N3)/C(c3ccc(C(=O)O)cc3)=c3/cc/c([nH]3)=C(\c3ccc(C)cc3)C3C=CC(N3)/C(c3ccc(C)cc3)=C3/C=CC2=N3)cc1 (stereo unspecified) | 4.83 | 14.8 µM |  |
| C1=C/C2=C(\c3ccccc3)C3C=CC(N3)/C(c3ccccc3)=c3/cc/c([nH]3)=C(\c3ccccc3)C3=N/C(=C(/c4ccccc4)C1=N2)C=C3 (stereo unspecified) | 4.26 | 55 µM |  |
| O=C(O)c1ccc(/C2=C3\C=CC(=N3)/C(c3ccc(C(=O)O)cc3)=c3/cc/c([nH]3)=C(\c3ccc(C(=O)O)cc3)C3C=CC(N3)/C(c3ccc(C(=O)O)cc3)=C3/C=CC2=N3)cc1 (stereo unspecified) | 6.20 |  |  |
| O=C(O)CCC1=C(CC(=O)O)c2cc3nc(cc4[nH]c(cc5[nH]c(cc1n2)c(CC(=O)O)c5CCC(=O)O)c(CC(=O)O)c4CCC(=O)O)C(CC(=O)O)=C3CCC(=O)O | 5.04 | 9.12 µM |  |
| CC1=C(CCC(=O)O)c2cc3nc(cc4[nH]c(cc5[nH]c(cc1n2)c(CCC(=O)O)c5CC(=O)O)c(CCC(=O)O)c4C)C(CCC(=O)O)=C3C | 4.36 | 43.7 µM |  |
| CC1=C(CCC(=O)O)c2cc3[nH]c(cc4[nH]c(cc5nc(cc1n2)C(CCC(=O)O)=C5CC(=O)O)c(CCC(=O)O)c4CC(=O)O)c(CCC(=O)O)c3CC(=O)O | 4.97 | 10.7 µM |  |
| O=C(O)C1=CC(=C(c2ccc(O)c(C(=O)O)c2)c2ccc(O)c(C(=O)O)c2)C=CC1=O [AURINTRICARBOXYLIC ACID] | 4.55 |  |  |
| C=CC1=C(C)c2cc3[nH]c(cc4nc(cc5[nH]c(cc1n2)c(C)c5CCC(=O)O)C(CCC(=O)O)=C4C)c(C)c3C=C [PROTOPORPHYRIN] | 5.66 | 2.19 µM |  |
